Laboratory results published in ChEMBL document CHEMBL1158522, “Design, synthesis, and pharmacological evaluation of phenoxy pyridyl derivatives as dual norepinephrine reuptake inhibitors and 5-HT1A partial agonists” (Bioorg Med Chem Lett, 2010).

What was measured:
[1] = biological target: T1, Sodium-dependent dopamine transporter (Homo sapiens, UniProt Q01959); assay: Displacement of [3H]WIN-35428 from human DAT expressed in HEK293 cells by scintillation proximity assay; assay type: cell-based
T1 sequence (Q01959 whole entry): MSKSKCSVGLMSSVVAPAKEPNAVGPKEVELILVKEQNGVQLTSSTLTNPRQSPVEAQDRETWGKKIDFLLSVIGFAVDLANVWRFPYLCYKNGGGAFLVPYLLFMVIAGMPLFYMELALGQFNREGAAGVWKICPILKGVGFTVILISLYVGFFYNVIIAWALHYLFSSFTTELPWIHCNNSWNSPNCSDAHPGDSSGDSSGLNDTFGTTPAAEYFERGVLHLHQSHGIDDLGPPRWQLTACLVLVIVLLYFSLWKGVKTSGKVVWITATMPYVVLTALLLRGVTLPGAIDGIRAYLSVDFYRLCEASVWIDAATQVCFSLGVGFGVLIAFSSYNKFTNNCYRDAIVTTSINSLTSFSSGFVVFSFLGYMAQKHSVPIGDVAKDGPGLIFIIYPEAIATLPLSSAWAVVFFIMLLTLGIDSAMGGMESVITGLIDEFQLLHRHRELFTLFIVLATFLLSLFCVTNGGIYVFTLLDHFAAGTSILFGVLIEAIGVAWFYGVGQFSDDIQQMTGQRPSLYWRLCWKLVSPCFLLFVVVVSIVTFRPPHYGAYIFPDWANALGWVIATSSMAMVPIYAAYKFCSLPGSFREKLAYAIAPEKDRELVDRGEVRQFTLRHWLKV

[2] = biological target: T2, Sodium-dependent serotonin transporter (Homo sapiens, UniProt P31645); assay: Displacement of [3H]citalopram from human SERT expressed in HEK293 cells by scintillation proximity assay; assay type: cell-based
T2 sequence (P31645 whole entry): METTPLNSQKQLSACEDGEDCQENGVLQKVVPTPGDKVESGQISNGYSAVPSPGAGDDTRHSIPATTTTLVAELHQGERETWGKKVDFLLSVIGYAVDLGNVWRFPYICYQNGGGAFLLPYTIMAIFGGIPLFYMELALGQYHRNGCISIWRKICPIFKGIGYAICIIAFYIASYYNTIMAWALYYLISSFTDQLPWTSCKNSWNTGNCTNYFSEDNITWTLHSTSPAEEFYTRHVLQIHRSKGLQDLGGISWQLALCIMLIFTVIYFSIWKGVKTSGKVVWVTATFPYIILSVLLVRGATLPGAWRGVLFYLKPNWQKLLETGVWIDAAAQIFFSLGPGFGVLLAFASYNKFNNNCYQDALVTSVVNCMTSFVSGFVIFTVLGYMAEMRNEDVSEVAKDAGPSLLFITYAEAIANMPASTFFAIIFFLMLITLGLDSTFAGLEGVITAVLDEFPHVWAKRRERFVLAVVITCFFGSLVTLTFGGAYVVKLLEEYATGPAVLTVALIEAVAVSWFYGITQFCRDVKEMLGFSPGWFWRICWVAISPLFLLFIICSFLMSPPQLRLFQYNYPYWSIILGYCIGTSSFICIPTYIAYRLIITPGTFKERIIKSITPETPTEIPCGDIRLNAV

[3] = biological target: T3, 5-hydroxytryptamine receptor 1A (Homo sapiens, UniProt P08908); assay: Displacement of [3H]8-OH-DPAT from human cloned 5HT1A receptor by filtration techniques
T3 sequence (P08908 whole entry): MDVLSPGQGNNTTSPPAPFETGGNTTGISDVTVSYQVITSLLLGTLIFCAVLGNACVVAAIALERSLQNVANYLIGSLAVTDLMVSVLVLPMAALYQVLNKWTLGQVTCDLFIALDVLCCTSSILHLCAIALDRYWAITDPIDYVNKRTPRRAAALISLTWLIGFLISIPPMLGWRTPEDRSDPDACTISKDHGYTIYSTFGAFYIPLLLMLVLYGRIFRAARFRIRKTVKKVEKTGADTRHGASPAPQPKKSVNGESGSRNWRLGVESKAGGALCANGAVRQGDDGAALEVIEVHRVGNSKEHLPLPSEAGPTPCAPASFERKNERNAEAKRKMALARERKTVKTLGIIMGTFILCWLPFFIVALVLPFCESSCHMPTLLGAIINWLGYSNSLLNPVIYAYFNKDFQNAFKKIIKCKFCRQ

[4] = biological target: T4, Sodium-dependent noradrenaline transporter (Homo sapiens, UniProt P23975); assay: Displacement of [3H]nisoxetine from human NET expressed in HEK293 cells by scintillation proximity assay; assay type: cell-based
T4 sequence (P23975 whole entry): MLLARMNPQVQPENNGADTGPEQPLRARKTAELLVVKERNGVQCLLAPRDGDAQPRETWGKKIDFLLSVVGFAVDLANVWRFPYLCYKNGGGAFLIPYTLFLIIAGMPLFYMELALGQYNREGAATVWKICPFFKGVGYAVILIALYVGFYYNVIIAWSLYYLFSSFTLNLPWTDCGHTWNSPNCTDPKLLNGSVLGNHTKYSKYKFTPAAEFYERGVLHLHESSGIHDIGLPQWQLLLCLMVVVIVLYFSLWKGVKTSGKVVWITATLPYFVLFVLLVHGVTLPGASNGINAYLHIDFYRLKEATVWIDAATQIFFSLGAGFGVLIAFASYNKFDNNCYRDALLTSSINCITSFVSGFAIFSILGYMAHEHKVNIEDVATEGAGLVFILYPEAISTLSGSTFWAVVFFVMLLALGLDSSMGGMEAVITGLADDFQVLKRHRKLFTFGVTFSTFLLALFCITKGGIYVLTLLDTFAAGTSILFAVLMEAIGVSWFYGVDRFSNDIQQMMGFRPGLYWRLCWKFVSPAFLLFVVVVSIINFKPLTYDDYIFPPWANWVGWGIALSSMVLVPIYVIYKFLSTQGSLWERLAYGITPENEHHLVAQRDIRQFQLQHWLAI

[5] = biological target: T4, Sodium-dependent noradrenaline transporter; assay: Agonist activity at NET; assay type: functional
[6] = biological target: T1, Sodium-dependent dopamine transporter; assay: Agonist activity at DAT; assay type: functional
Rattus norvegicus [7] = assay: Ex vivo NET occupancy in rat brain at 10 mg/kg, sc after 1 hr; assay type: functional; conditions: route subcutaneous
[8] = Ratio of EC50 for SERT to EC50 for NET
[9] = biological target: T2, Sodium-dependent serotonin transporter; assay: Agonist activity at SERT; assay type: functional
[10] = biological target: T3, 5-hydroxytryptamine receptor 1A; assay: Agonist activity at 5HT1A receptor by GTPgammaS assay; assay type: functional
[11] = biological target: T5, 5-hydroxytryptamine receptor 1A (Homo sapiens) (UniProt P08908); assay: Intrinsic activity at 5HT1A receptor by GTPgammaS assay; assay type: functional
T5 sequence (whole entry): T3 sequence (P08908 whole entry)

[12] = Plasma concentration rat at 10 mg/kg, sc after 1 hr; assay type: ADME, organism-based; design: dose 10 mg/kg, route subcutaneous
Rattus norvegicus [13] = assay: Ex vivo 5HT1A receptor occupancy in rat brain at 10 mg/kg, sc after 1 hr; assay type: functional; conditions: route subcutaneous

Row | Structure (SMILES) | Ki [1] [nM] | Ki [2] [nM] | Ki [3] [nM] | Ki [4] [nM] | EC50 [5] [nM] | EC50 [6] [nM] | Activity (Rattus norvegicus [7]) [%] | Ratio EC50 [8] | EC50 [9] [nM] | EC50 [10] [nM] | Intrinsic activity [11] [%] | concentration at 1 h [12] [ng/mL] | Activity (Rattus norvegicus [13]) [%]
1 | Cc1ccc(Oc2ncccc2C2CCNCC2)c(F)c1 | > 6140 | 36 | 5.5 | 921 |  |  |  |  |  |  |  |  | 
2 | Fc1cccc(Cl)c1Oc1ncccc1N1CCNCC1 | > 6320 | > 4710 | 3.7 | 663 |  |  |  |  |  |  |  |  | 
3 | Clc1ccc(Oc2ncccc2C2CCNCC2)c(Cl)c1 | > 5500 | 2.7 | 37 | 413 |  |  |  |  |  |  |  |  | 
4 | Fc1ccccc1Oc1ncccc1C1CCNCC1 | > 6180 | 728 | 13 | 536 |  |  |  |  |  |  |  |  | 
5 | Fc1cccc(Oc2ncccc2C2CCNCC2)c1F | > 6650 | 109 | 173 | 1810 |  |  |  |  |  |  |  |  | 
6 | Clc1ccccc1Oc1ncccc1C1CCNCC1 | 5150 | 57 | 16 | 74 |  |  |  |  |  |  |  |  | 
7 | COc1ccccc1Oc1ncccc1C1CCNCC1 | 6410 | 610 | 92 | 292 |  |  |  |  |  |  |  |  | 
8 | COc1cccc(F)c1Oc1ncccc1C1CCNCC1 | 6410 | 887 | 24 | 276 |  |  |  |  |  |  |  |  | 
9 | Fc1ccc(Oc2ncccc2C2CCNCC2)c(F)c1 | 2590 | 30 | 29 | 143 |  |  |  |  |  |  |  |  | 
10 | c1ccc(Oc2ncccc2C2CCNCC2)cc1 | 4310 |  | 101 | 2440 |  |  |  |  |  |  |  |  | 
11 | Clc1cccc(Oc2ncccc2C2CCNCC2)c1Cl | 310 | 2 | 37 | 25 |  |  |  |  |  |  |  |  | 
12 | Fc1cccc(Cl)c1Oc1ncccc1C1CCNCC1 | > 6180 | 194 | 11 | 33 | 9 | 6880 | 75.3 | 45 | 409 | 89 | 37 | 777 | 37.4
13 | Fc1ccccc1Oc1cccc(F)c1C1CCNCC1 | 278 | 1260 | 4.6 | 32 | 28 | 498 |  | 33 | 915 | 341 | 84 |  | 
14 | Cc1cccc(F)c1Oc1ncccc1C1CCNCC1 | > 6370 | 102 | 10 | 27 |  |  |  |  |  |  |  |  | 
15 | Clc1ccccc1Oc1ncccc1N1CCNCC1 | > 6320 | > 4710 | 4.5 | 747 |  |  |  |  |  |  |  |  | 
16 | Fc1cccc(F)c1Oc1ncccc1C1CCNCC1 | > 6630 | 1850 | 7.2 |  |  |  |  |  |  |  |  |  | 
17 | FC(F)(F)c1ccccc1Oc1ncccc1C1CCNCC1 | > 6650 | 203 | 71 | 140 |  |  |  |  |  |  |  |  | 
18 | Cc1ccccc1Oc1ncccc1C1CCNCC1 | > 6170 | 292 | 60 | 330 |  |  |  |  |  |  |  |  | 
19 | Fc1ccc(Cl)c(Oc2ncccc2C2CCNCC2)c1 | > 6220 | 251 | 17 | 247 |  |  |  |  |  |  |  |  | 
